The source of these data is ChEMBL document CHEMBL1156829 (Proc Natl Acad Sci U S A, 2008).

Data set [1] can be described thus: NOVARTIS: Cytotoxicity against human hepatocellular carcinoma cell line (Huh7). The data set is classed as toxicity, cell-based, Huh-7. The following applies: Huh7 cells (hepatocellular carcinoma cell line).
In data set [2] the test system is Plasmodium falciparum. Put plainly: NOVARTIS: Inhibition of Plasmodium falciparum W2 (drug-resistant) proliferation in erythrocyte-based infection assay. Format: functional, organism-based. The following applies: Plasmodium falciparum, W2; read-out: EC50.
Data set [3] has as its system Plasmodium falciparum. Put plainly: NOVARTIS: Inhibition of Plasmodium falciparum 3D7 (drug-susceptible) proliferation in erythrocyte-based infection assay. Conditions: Plasmodium falciparum, 3D7. The data set is classed as functional, organism-based.

Regarding `CCOc1ccc(-c2nc(NC(=O)Cc3cccc(OC)c3)sc2C)cc1`, in data set [1], the CC50 (usually the concentration that lowers cell viability or growth by half) is greater than 10 µM. Moreover, the EC50 (as a rule, the concentration giving half of the maximal effect) was determined as 0.417 µM in the data set with Plasmodium falciparum [2] and 0.273 µM with Plasmodium falciparum [3].
`CN(C)c1ccc(-c2nc(-c3ccc(-c4[nH]c(-c5ccc(N(C)C)cc5)nc4-c4ccccc4)cc3)c(-c3ccccc3)[nH]2)cc1` gave a CC50 in data set [1] of 68.4 µM. The EC50 in the data set on Plasmodium falciparum [2] is 2.91 µM; in the data set on Plasmodium falciparum [3] it was 7.82 µM.
For `Oc1cccc(C=Nc2ccccc2)c1O` the same measures were greater than 10.3 µM, 0.435 µM and 0.36 µM.
For `c1ccc2cc3c(N4CCN(CCCN5CCN(c6ccnc7cc8ccccc8cc67)CC5)CC4)ccnc3cc2c1` the same measures were greater than 10 µM, 0.417 µM and 0.0794 µM.
On the same counts, the results for `Brc1ccc(Nc2nc3ccccc3nc2Nc2ccc(Br)cc2)cc1` are 20.6 µM, 0.854 µM and 0.809 µM.
Take `O=C1C(=O)N(Cc2cccc3ccccc23)c2ccc(Br)cc21`: the CC50 in data set [1] was greater than 100 µM. The EC50 with Plasmodium falciparum [2] is 4.23 µM; in the data set on Plasmodium falciparum [3], greater than 12.5 µM.
Molecule `O=C(NCc1ccccc1)NC1CC2CCCC(C1)N2Cc1ccccc1` (stereo not given) yielded a CC50 in data set [1] greater than 10 µM. Besides, the EC50 turned out to be 0.423 µM in the data set with Plasmodium falciparum [2] and 0.879 µM in the data set on Plasmodium falciparum [3].
For `Cc1ccc(C)c(NC2=C(c3ccc(C(F)(F)F)cc3)C(=O)c3ccccc32)c1` the same measures were greater than 100 µM, 4.22 µM and 1.85 µM.
As to `CCN1/C(=C/C(=C/c2sc3ccccc3[n+]2CC)NC)Sc2ccccc21`, the CC50 in data set [1] is greater than 10 µM. Besides, the EC50 was greater than 0.422 µM with Plasmodium falciparum [2] and greater than 1.25 µM in the data set with Plasmodium falciparum [3].
Molecule `O=C(NC1CCN(Cc2ccccc2)CC1)[C@@H](c1ccccc1)N1Cc2ccccc2C1=O` gave a cytotoxic concentration (CC50) in data set [1] greater than 100 µM. For the same molecule, the concentration giving a half-maximal response (EC50) in the data set with Plasmodium falciparum [2] is 4.21 µM; in the data set on Plasmodium falciparum [3] it was greater than 12.5 µM.
As to `CC(=O)OCN1C(=O)N(COC(C)=O)C2C1N(COC(C)=O)C(=O)N2COC(C)=O` (stereo not given), the CC50 in data set [1] was greater than 100 µM. The EC50 with Plasmodium falciparum [2] was 4.22 µM; in the data set on Plasmodium falciparum [3], greater than 11.6 µM.
For `O=C(/C=C\c1ccccc1)Nc1ccc2[nH]c(-c3ccc(NC(=O)/C=C/c4ccccc4)cc3)nc2c1` the same measures were greater than 10 µM, 0.425 µM and 0.254 µM.
As to `Cc1ccc(CN2CCN(Cc3cn(C(C)C)c4ccccc34)CC2CCO)o1` (stereo not given), the CC50 in data set [1] is greater than 100 µM. Further, the EC50 in the data set on Plasmodium falciparum [2] was 4.21 µM; with Plasmodium falciparum [3] it was greater than 12.5 µM.
For `CCOC(=O)c1cccc(NC(=O)CCn2nc(C)c3c(C)n(-c4ccccc4)nc3c2=O)c1` the same measures were greater than 100 µM, 4.27 µM and 3.06 µM.
On to `O=Cc1c(OCc2ccc(Cl)cc2Cl)ccc2ccccc12`, for which the half-maximal cytotoxic concentration (CC50) in data set [1] is greater than 10 µM. The concentration for a half-maximal effect (EC50) was found to be 0.426 µM in the data set with Plasmodium falciparum [2] and 0.719 µM in the data set on Plasmodium falciparum [3].
For the molecule `Clc1ccc(-c2c[n+](Cc3ccccc3Cl)c3n2CCC3)cc1Cl`, in data set [1], the half-maximal cytotoxic concentration (CC50) is greater than 30.9 µM. The values for the concentration for a half-maximal effect (EC50) with Plasmodium falciparum [2] and in the data set on Plasmodium falciparum [3] were 1.31 µM and 0.749 µM, respectively.
On the same counts, the results for `CCC(C)NC(=O)c1c[nH]c2ccc(S(=O)(=O)N3CCc4ccccc43)cc2c1=O` (stereo not given) are greater than 10 µM, 0.424 µM and greater than 1.25 µM.
On the same counts, the results for `C=CCNC(=O)c1ccc2c(c1)N=CN(CCOc1ccccc1)C2` are greater than 10 µM, 0.419 µM and 0.441 µM.
On the same counts, the results for `OCCNc1nc(Nc2ccccc2O)nc2ccccc12` are 58.7 µM, 2.47 µM and 1.86 µM.
The molecule `COc1cccc(C(=O)N(CCCC(C)Nc2cc(OC)cc3cccnc23)Cc2ccc(F)cc2)c1` (stereo not given) yielded a cytotoxic concentration (CC50) in data set [1] of 3.73 µM. Further, the EC50 came out at 0.154 µM in the data set with Plasmodium falciparum [2] and 0.666 µM with Plasmodium falciparum [3].
With `COc1nccnc1NS(=O)(=O)c1ccc(NC(=O)c2cc3ccccc3oc2=O)cc1`, in data set [1], the CC50 was greater than 10 µM. In addition, the concentration giving a half-maximal response (EC50) was greater than 0.428 µM with Plasmodium falciparum [2] and greater than 1.25 µM in the data set on Plasmodium falciparum [3].
On the same counts, the results for `CCN(CC)c1cc(-c2ccccn2)nc(-c2ccccn2)n1` are greater than 10 µM, 0.418 µM and 0.578 µM.
`FC(F)(F)c1cccc(-c2cncc(N3CCN(c4ccccn4)CC3)n2)c1` gave a CC50 in data set [1] of 45.7 µM. Also, the values for the 50% effective concentration (EC50) in the data set with Plasmodium falciparum [2] and with Plasmodium falciparum [3] were 1.91 µM and 5.77 µM, respectively.
For `O=C(/C=C/Nc1ccccc1NS(=O)(=O)c1ccc([N+](=O)[O-])cc1)c1ccccc1` the same measures were greater than 10 µM, 0.419 µM and greater than 1.25 µM.
For `CCn1cc(C(=O)N2CCC(C(=O)c3nccs3)CC2)c(C)n1` the same measures were greater than 10 µM, greater than 0.418 µM and greater than 1.25 µM.
On the same counts, the results for `CCOc1ccc(C2C(=O)N(C3CCCCC3)CC(=O)N2Cc2ccc(F)cc2)cc1OC` (stereo not given) are greater than 100 µM, 4.15 µM and 4.56 µM.
Turning to `Cc1ccc(-c2cc(-c3ccccc3)c(C#N)c(SCC(O)C[S+]([O-])Cc3ccccc3)n2)cc1` (stereo not given), half-maximal cytotoxicity in data set [1] (CC50) was put at 39.9 µM. Also, the figures for the EC50 in the data set with Plasmodium falciparum [2] and with Plasmodium falciparum [3] were 1.65 µM and 7.17 µM, respectively.
Molecule `O=c1cc(NC2CCN(CCCc3ccccc3)CC2)c2cc(Cl)ccc2o1` gave a CC50 in data set [1] of 20.5 µM. Further, the EC50 in the data set with Plasmodium falciparum [2] was found to be 0.863 µM; in the data set with Plasmodium falciparum [3], 0.408 µM.
On the same counts, the results for `CCN(CC)CCCN(Cc1cc2cc3c(cc2[nH]c1=O)OCCO3)C(=S)Nc1cccc(Cl)c1` are 21.2 µM, 0.89 µM and 1.16 µM.
For `CCCCCCCCOC(=O)NCCCCCCNC(=O)OCCCCCCCC` the same measures were greater than 100 µM, 4.19 µM and greater than 12.5 µM.
On the same counts, the results for `Cc1ccc(O)c(Nc2c3c(c(C#N)c4nc5ccccc5n24)CCC3)c1` are greater than 10 µM, 0.424 µM and 0.231 µM.
In data set [1], `COc1ccc2nc(C)cc(Nc3ccc(Oc4ccc(Cl)c5ccccc45)c(Cl)c3)c2c1` displayed a CC50 of 19.8 µM. Further, the concentration for a half-maximal effect (EC50) in the data set on Plasmodium falciparum [2] amounted to 0.826 µM; in the data set on Plasmodium falciparum [3] it was 0.365 µM.
In data set [1], `CC1(C)Oc2ccc3ccc(=O)oc3c2CC1=NNC(N)=S` came in with a CC50 greater than 100 µM. For the same molecule, the EC50 in the data set on Plasmodium falciparum [2] is 4.19 µM; in the data set with Plasmodium falciparum [3] it was greater than 12.5 µM.
For `N#Cc1sccc1NS(=O)(=O)c1ccc(Cl)cc1` the same measures were greater than 10 µM, greater than 0.413 µM and greater than 1.25 µM.
For the molecule `O=[N+]([O-])c1ccc(-c2csc(CO)n2)cc1`, the 50% cytotoxic concentration (CC50) in data set [1] is greater than 100 µM. Also, the concentration for a half-maximal effect (EC50) was 4.27 µM in the data set on Plasmodium falciparum [2] and greater than 12.5 µM in the data set on Plasmodium falciparum [3].
In the case of `CCOc1c(Cl)cc(CNC(C)C(O)c2ccccc2)cc1OC` (stereo not given), the CC50 in data set [1] was greater than 10 µM. Besides, the concentration for a half-maximal effect (EC50) in the data set with Plasmodium falciparum [2] is 0.427 µM; in the data set on Plasmodium falciparum [3], 1.65 µM.
For `CN(CCCNc1ccnc2cc(Cl)ccc12)C(=O)c1cccc(F)c1` the same measures were greater than 11.5 µM, 0.49 µM and 0.739 µM.
Molecule `O=C1C(Nc2ccccc2)=C(n2nnc3ccccc32)C(=O)c2ccccc21` had a CC50 in data set [1] of 6.3 µM. The 50% effective concentration (EC50) with Plasmodium falciparum [2] amounted to 0.259 µM; in the data set with Plasmodium falciparum [3], 2.02 µM.
In the case of `CC[n+]1c(/C=C/C=C2\N(C)c3ccccc3C2(C)C)n(CCCOC(C)=O)c2ccccc21`, in data set [1], the cytotoxic concentration (CC50) was greater than 10 µM. Further, the figures for the concentration for a half-maximal effect (EC50) with Plasmodium falciparum [2] and in the data set with Plasmodium falciparum [3] were 0.416 µM and 0.322 µM, respectively.
On the same counts, the results for `Cc1ccc(-c2cn3c([n+]2-c2ccc(C)cc2)CCCCC3)cc1` are 10.9 µM, 0.459 µM and 0.999 µM.
